Reference: patent publication US20040258779A1, “Dietary and pharmaceutical compositions for treatment of anemia, thrombocytopenia, and leukopenia” (priority 2003, published 2004)
Where “and” joins values, the source holds several entries; their conditions need not be identical. Equal values may be shown once.

How the values were obtained:
[1] = test system: human mononuclear cells; experiment: GM-CSF production by the human mononuclear cells; assay type: cell-based; conditions: for GM-CSF production by the human mononuclear cells: donors 1-7 and mean M±; for GM-CSF synthesis, in words: versus random synthesis (control), statistically significant
Method: PL-3 was added in concentrations of 100 μg/ml, 10 μg/ml, 1 μg/ml, and feeding media was added to the control wells. Cytokine content was defined by IFA with commercial kit […] (Cytimmune, USA). The effect of PL-3 on the synthesis of GM-CSF was evaluated accordingly to the previous method.

[2] = test system: monocytes; experiment: Active oxygen forms by monocytes, cytofluorometry; assay type: cell-based, human; set-up: formation of active oxygen forms by monocytes: unit not given here; conditions: for formation of active oxygen forms by monocytes: single donors and mean M
Method: (§1) This effect was evaluated by luminal dependent chemoluminiscence and cytofluorometry. In the second case the leukocytes were added to dichlorofluoroscein […]). This substance is originally non fluorescence one. However, after the penetration into the cells it is turned into green fluorochrom in the presence of the hydrogen peroxide. The reaction was monitored in the flow cytometer FACSCalibur.

[3] = test system: neutrophils; experiment: Active oxygen forms by neutrophils, cytofluorometry; assay type: cell-based, human; conditions: versus control data (p=0.08)
Method: as §1

[4] = test system: target cells K-562; experiment: Natural killer cell cytotoxicity on 3H-uridine labeled target cells; assay type: cell-based, human; conditions: for function of natural killer cells, Cytotoxicity (%): 3 hours incubation, K-562 targets, donors 1-7 and mean M
Method: Cells were separated after 3 hours of the incubation at 37° C. in CO2 incubator. Their cytotoxic action on the target cells K-562 labeled with ^3H-uridine was evaluated.

[5] = test system: human mononuclear blood cells; experiment: TNF alpha production by human mononuclear blood cells; assay type: cell-based; conditions: for TNF alpha synthesis by mononuclear cells, in words: versus control samples
Method: PL-3 was added in concentrations of 100 μg/ml, 10 μg/ml, 1 μg/ml, and feeding media was added to the control wells. Cytokine content was defined by IFA with commercial kit […] (Cytimmune, USA).

[6] = test system: leukocytes of the healthy donors; experiment: Active oxygen forms by leukocytes, luminol dependent chemoluminiscence; assay type: cell-based, human
Method: This effect was evaluated by luminal dependent chemoluminiscence and cytofluorometry. In the first case leukocytes were separated by gelatin and connected with luminal, human serum and added to the vials with the different concentration of the substance.

[7] = test system: human mononuclear cells; experiment: Cell longevity of mononuclear leukocytes, propidium iodide flow cytometry; assay type: cell-based; conditions: for cell longivity (percentage of dead cells): time not given (twofold reduction after 72 hours), donors 1-3 and mean M; for cell longevity: after 24 hours treatment; for cell longevity, protective effect: after 48 hours of incubation; for percentage of dead cells: after 72 hours of the incubation
[8] = Hypersensitivity of the delayed type
[9] = test system: interferon-γ

CC(=O)N[C@H]1[C@H](O[C@H]2[C@H](O[C@H](C)C(=O)N[C@@H](C)C(=O)N[C@H](CCC(=O)O)C(N)=O)[C@@H](NC(C)=O)C(O)O[C@@H]2CO)O[C@H](CO)[C@@H](O)[C@@H]1O (some centres unmarked) [GMDP, reference compound]
GM-CSF production by the human mononuclear cells ([1]; 100 mkg/ml): 983 and 584 and 609 and 944 and 581 and 735 and 773 | GM-CSF synthesis, in words [1]: strong inductors | generation of active oxygen forms by monocytes, in words [2]: do not generate the active oxygen forms | formation of active oxygen forms by monocytes ([2]; concentration 1.0 (unit not given)): 27 and 16 (2×) and 23 and 54 and 15 and 12 and 18 and 14 | formation of active oxygen forms by monocytes ([2]; concentration 10.0 (unit not given)): 25 and 14 (2×) and 11 and 16 and 70 and 19 and 15 and 26 | formation of active oxygen forms by monocytes ([2]; concentration 100.0 (unit not given)): 14 and 15 and 12 and 16 (2×) and 34 (2×) and 102 and 19.5 | active oxygen forms, cytofluometric analysis, in words [3]: does not posses this activity | function of natural killer cells, Cytotoxicity (%) ([4]; 1 μg/ml): 51% and 49% and 38% and 44% and 50% and 47% | function of natural killer cells, Cytotoxicity (%) ([4]; 10 μg/ml): 34% and 48% and 45% and 40% and 53% and 47% | function of natural killer cells, Cytotoxicity (%) ([4]; 100 μg/ml): 33% and 48% and 46% and 44% and 50% | TNF alpha synthesis by mononuclear cells, in words [5]: does not lead to the induction | ability of leukocytes to generate the active oxygen forms (chemoluminiscence), in words [6]: did not change | cell longivity (percentage of dead cells) ([7]; 1 μg/ml): 16 and 17 and 18 | cell longivity (percentage of dead cells) ([7]; 10 μg/ml): 17 and 23 and 21 | cell longivity (percentage of dead cells) ([7]; 100 μg/ml): 15 and 18 and 24 | cell longevity [7]: unchanged | cell longevity, protective effect [7]: weak protective effect | percentage of dead cells [7]: twofold reduction

CC(=O)NC1C(OC2C(CO)OC(O)C(NC(C)=O)C2OC(C)C(=O)NC(C)C(=O)NC(CCC(=O)NC(CCCC(N)C(=O)O)C(=O)NC(C)C(=O)O)C(N)=O)OC(CO)C(O)C1O [PL-3, N-acetyl-glucosamine-N-acetyl-muramyl-L-alanine-D-isoglutamine-diaminopimenic acid-D-alanine]
GM-CSF synthesis relative to GMDP ([1]; 10 mkg/ml and 100 mkg/ml, p=0.029 and 0.038): almost two times more | GM-CSF production by the human mononuclear cells ([1]; 10 mkg/ml): 1109 and 752 and 740 and 1115 and 920 and 1052 | GM-CSF production by the human mononuclear cells ([1]; 10 mkg/ml, mean): 975 ± 282.5 | GM-CSF synthesis, in words [1]: strong inductors | generation of active oxygen forms by monocytes, in words [2]: do not generate the active oxygen forms | formation of active oxygen forms by monocytes ([2]; concentration 1.0 (unit not given), listed as GMTP): 31 and 15 and 29 and 50 and 25 (2×) and 18 (2×) and 16 | formation of active oxygen forms by monocytes ([2]; concentration 1.0 (unit not given), listed as GMTP, mean): 25.2 | formation of active oxygen forms by monocytes ([2]; concentration 10.0 (unit not given), listed as GMTP): 29 and 14 (2×) and 18 (2×) and 13 and 32 and 17 and 15 | formation of active oxygen forms by monocytes ([2]; concentration 10.0 (unit not given), listed as GMTP, mean): 18.9 | formation of active oxygen forms by monocytes ([2]; concentration 100.0 (unit not given), listed as GMTP): 22 and 18 and 13 and 25 and 20 and 42 and 0.6 and 26 and 31 | formation of active oxygen forms by monocytes ([2]; concentration 100.0 (unit not given), listed as GMTP, mean): 23.8 | active oxygen forms, cytofluometric analysis, in words [3]: stimulated the active oxygen forms | function of natural killer cells, Cytotoxicity (%) ([4]; 1 μg/ml, listed as GMTP): 45% and 56% and 41% and 37% and 55% and 63% and 48% | function of natural killer cells, Cytotoxicity (%) ([4]; 1 μg/ml, listed as GMTP, mean): 49.2% | function of natural killer cells, Cytotoxicity (%) ([4]; 10 μg/ml, listed as GMTP): 55% and 38% and 44% and 43% and 53% and 65% and 57% | function of natural killer cells, Cytotoxicity (%) ([4]; 10 μg/ml, listed as GMTP, mean): 50.7% | cytotoxic activity of the natural killer cells, in words ([4]; 100 μg/ml): increase the cytotoxic activity | function of natural killer cells, Cytotoxicity (%) ([4]; 100 μg/ml, listed as GMTP): 56% and 55% and 49% and 51% and 66% and 54% | function of natural killer cells, Cytotoxicity (%) ([4]; 100 μg/ml, listed as GMTP, mean): 54.2% | hypersensitivity of the delayed type [8]: absence of its effect | TNF alpha production in comparison with GMDP [5]: enhanced two fold | TNF alpha synthesis by mononuclear cells, in words [5]: significant increase | interferon-γ [9]: does not affect | ability of leukocytes to generate the active oxygen forms (chemoluminiscence), in words [6]: did not change | cell longivity (percentage of dead cells) ([7]; 1 μg/ml): 16 and 18 | cell longivity (percentage of dead cells) ([7]; 10 μg/ml): 16 and 21 and 17 | cell longivity (percentage of dead cells) ([7]; 10 μg/ml, mean): 18 | cell longivity (percentage of dead cells) ([7]; 100 μg/ml): 19 and 16 | cell longivity (percentage of dead cells) ([7]; 100 μg/ml, mean): 18 | cell longevity [7]: unchanged | cell longevity, protective effect [7]: weak protective effect | percentage of dead cells [7]: twofold reduction
